Converted amounts (≈) assume the structure as drawn. Blank lines part the entries; values can stand above or below the compound they belong to. The source made the active and inactive calls. The calls are words filed in the database; no cut-off is given here. Where a SMILES comes first, the peptide text is derived from it. [ ]: non-standard residue; d: D form. NMePhe(4-Br) = CN[C@@H](Cc1ccc(Br)cc1)C(=O)O; Phe(4-Br) = N[C@@H](Cc1ccc(Br)cc1)C(=O)O; NMeF = CN[C@@H](Cc1ccccc1)C(=O)O; Hica(2S) = CC(C)C[C@H](O)C(=O)O; NMeL = CN[C@@H](CC(C)C)C(=O)O; NMeV = CN[C@H](C(=O)O)C(C)C
Columns and labels:
[1] = test system: MDA-MB-231; test: Effect of N-methylation in MDA-MB-231 human […] cancer cells; exibit less potency; type: functional, cell-based
[2] = test system: PC-3; test: Effect of N-methylation in PC-3 human prostate cancer cells; exhibited lowest activity; type: functional, cell-based
[3] = test system: WM-115; test: Potency against human WM-115 cells; exhibited average potency; type: functional, cell-based
[4] = test system: MDA-MB-231; test: Inhibitory activity against MDA-MB-231 cells; exhibited moderate activity; type: functional, cell-based; conditions: Homo sapiens
[5] = Mean inhibitory concentration against cancer cell lines; type: functional, cell-based, Homo sapiens
[6] = test system: PC-3; test: Effect of N-methylation in PC-3 human prostate cancer cells; type: functional, cell-based
[7] = test system: Cancer cell lines; test: Inhibitory activity against AsPC-1 human pancreatic cancer cells; demonstarted good activity; type: functional, cell-based
[8] = test system: PC-3; test: Inhibitory activity against PC-3 human prostate cancer cells; demonstarted good activity; type: functional, cell-based
[9] = test system: WM-115; test: Concentration at which the compound exibit good activity WM-115 human melanoma cells; type: functional, cell-based
[10] = test system: MDA-MB-231; test: Inhibitory activity against MDA-MB-231 human […] cancer cells; demonstarted good activity; type: functional, cell-based
[11] = test system: Cancer cell lines; test: Inhibitory activity against S2-013 human pancreatic cancer cells; demonstarted good activity; type: functional, cell-based
[12] = test system: PC-3; test: Effect of N-methylation in PC-3 human prostate cancer cells; exhibited more potency; type: functional, cell-based
[13] = test system: MDA-MB-231; test: Effect of N-methylation in MDA-MB-231 human […] cancer cells; exibit high potency; type: functional, cell-based
[14] = test system: PC-3; test: Concentration at which the compound exibit more potency against PC-3 human prostate cancer cells; type: functional, cell-based
[15] = test system: MDA-MB-231; test: Concentration at which the compound exibit more potency against MDA-MB-231 human […] cancer cells; type: functional, cell-based
[16] = test system: Cancer cell lines; test: Concentration at which the compound exibit more potency agains AsPC-1 human pancreatic cancer cells; type: functional, cell-based
[17] = test system: MDA-MB-231; test: Inhibitory activity against MDA-MB-231 cells; demonstarted high activity; type: functional, cell-based; conditions: Homo sapiens
[18] = test system: Cancer cell lines; test: Potency exhibited by the compound against well-differentiated S2-013 human pancreatic cancer cell line; much more potent; type: functional, cell-based
[19] = test system: PC-3; test: Effective concentration against PC-3 human prostate cancer cells; type: functional, cell-based

SMILES: CC(C)C[C@@H]1NC(=O)[C@H](Cc2ccccc2)NC(=O)[C@H](CC(C)C)NC(=O)[C@H](C(C)C)NC(=O)[C@H](CC(C)C)NC1=O (cyclo(FLLVL))
Activity [1]: Potent | Activity [2]: Not Very Active | Activity [3]: Active

SMILES: CC(C)C[C@@H]1NC(=O)[C@H](Cc2ccccc2)NC(=O)[C@H](CC(C)C)N(C)C(=O)[C@H](C(C)C)NC(=O)[C@H](CC(C)C)NC1=O (cyclo(FLLV[NMeL]))
Activity [4]: Active

SMILES: CC(C)C[C@@H]1NC(=O)[C@H](Cc2ccccc2)NC(=O)[C@H](CC(C)C)NC(=O)[C@H](C(C)C)N(C)C(=O)[C@H](CC(C)C)NC1=O (cyclo(FLL[NMeV]L))
Activity [4]: Active

IC50 [5]: 27.4 µg/mL (≈ 46.7 µM)
SMILES: CC(C)C[C@@H]1NC(=O)[C@H](C(C)C)NC(=O)[C@H](CC(C)C)OC(=O)[C@H](CC(C)C)NC(=O)[C@H](Cc2ccccc2)NC1=O (cyclo(FL[Hica(2S)]VL))

SMILES: CC(C)C[C@@H]1NC(=O)[C@H](C(C)C)NC(=O)[C@H](CC(C)C)N(C)C(=O)[C@H](CC(C)C)NC(=O)[C@H](Cc2ccccc2)NC1=O (cyclo(FL[NMeL]VL))
Activity [1]: Potent

SMILES: CC(C)C[C@@H]1NC(=O)[C@H](C(C)C)NC(=O)[C@H](CC(C)C)NC(=O)[C@H](CC(C)C)N(C)C(=O)[C@H](Cc2ccccc2)NC1=O (cyclo(F[NMeL]LVL))
Activity [1]: Potent | Activity [6]: Not Very Active

SMILES: CC(C)C[C@@H]1NC(=O)[C@H](CC(C)C)NC(=O)[C@H](Cc2ccccc2)N(C)C(=O)[C@H](CC(C)C)NC(=O)[C@H](C(C)C)NC1=O (cyclo([NMeF]LLVL))
Activity [1]: Potent | Activity [6]: Not Very Active

SMILES: CC(C)C[C@@H]1NC(=O)[C@H](CC(C)C)NC(=O)[C@H](Cc2ccc(Br)cc2)N(C)C(=O)[C@H](CC(C)C)NC(=O)[C@H](C(C)C)NC1=O (cyclo([NMePhe(4-Br)]LLVL))
Activity [7]: Active | Activity [8]: Active | Concentration [9]: 10 µM | Activity [10]: Active | Activity [11]: Active

SMILES: CC(C)C[C@@H]1NC(=O)[C@H](Cc2ccc(Br)cc2)NC(=O)[C@H](CC(C)C)NC(=O)[C@H](C(C)C)NC(=O)[C@H](CC(C)C)NC1=O (cyclo([Phe(4-Br)]LLVL))
Activity [12]: More potent | Activity [13]: Potent

SMILES: CC(C)C[C@@H]1NC(=O)[C@H](Cc2ccc(Br)cc2)NC(=O)[C@H](CC(C)C)N(C)C(=O)[C@H](C(C)C)NC(=O)[C@H](CC(C)C)NC1=O (cyclo([Phe(4-Br)]LLV[NMeL]))
Concentration [14]: 10 µM | Concentration [15]: 10 µM | Concentration [9]: 10 µM | Activity [11]: Active | Concentration [16]: 10 µM

SMILES: CC(C)C[C@@H]1NC(=O)[C@H](Cc2ccc(Br)cc2)NC(=O)[C@H](CC(C)C)NC(=O)[C@H](C(C)C)N(C)C(=O)[C@H](CC(C)C)NC1=O (cyclo([Phe(4-Br)]LL[NMeV]L))
Activity [4]: Active

SMILES: CC(C)C[C@@H]1NC(=O)[C@H](C(C)C)NC(=O)[C@H](CC(C)C)N(C)C(=O)[C@H](CC(C)C)NC(=O)[C@H](Cc2ccc(Br)cc2)NC1=O (cyclo([Phe(4-Br)]L[NMeL]VL))
Activity [17]: Active | Activity [1]: Potent | Activity [6]: Not Very Active

EC50 [19]: 7.5 µM
SMILES: CC(C)C[C@@H]1NC(=O)[C@H](C(C)C)NC(=O)[C@H](CC(C)C)NC(=O)[C@H](CC(C)C)N(C)C(=O)[C@H](Cc2ccc(Br)cc2)NC1=O (cyclo([Phe(4-Br)][NMeL]LVL))
Concentration [14]: 10 µM | Concentration [15]: 10 µM | Activity [18]: Active | Activity [7]: Active
